What was measured:
[1] = test system: Panc-1 pancreatic cancer cells; assay: Quiescent (G0) cell fraction in serum-starved Panc-1 cells, two-parameter flow cytometry (Pyronin Y / Hoechst); format: cell-based, human
Experimental: Panc-1 cells were forced into the quiescent state by serum deprivation for 48 hours. Panc-1 were cultured in DMEM+0.2% FBS for 48 hours. Next the cells were switched to fresh media DMEM+10% FBS (panel A) or to fresh media DMEM+1-% FBS supplemented with 0.25 μM DYRK1B inhibitor R (panel B). As a result of this serum deprivation, 42% of cells were identified in G0 quiescent state, as depicted in FIG. 5A. The percentage of quiescent cells was identified by flow cytometry FACS analysis.
Next, a DYRK1B small molecule inhibitor R, pictured in FIG. 7, was applied to inhibit the activity of DYRK1B kinase, and the percentage of quiescent cells was again analyzed. […] Upon inhibition of the activity of DYRK1B kinase, pancreatic cancer cells left the G0 quiescent state and progressed into cell cycle. While the number of quiescent cells had been reduced to 27% in the presence of DYRK1B inhibitor R, the number of cells in S-phase of cell cycle doubled (13%) as compared to control cells (6% in FIG. 5A). DYRK1B kinase activity was necessary for Panc-1 pancreatic cancer cells to accumulate in a quiescent state. The distribution of cellular population within the cell cycle (i.e. G0, G1, S and G2/M populations) was analyzed by two-parameter flow cytometry. Specifically, the incorporation of Pyronin Y and Hoechst staining correlated to RNA and DNA content distribution, respectively. (Ewton, D. Z., Hu, J., Vilenchik, M., Deng, X., Luk, K. C., Polonskaia, A., Hoffman, A. F., Zipf, K., Boylan, J. F., and Friedman, E. A. (2011) Inactivation of mirk/dyrk1b kinase targets quiescent pancreatic cancer cells, Molecular Cancer Therapeutics 10, 2104-2114).

[2] = test system: colon cancer cell line SW620; assay: S-phase fraction of cycling log-phase SW620 cells, BrdU pulse / PI flow cytometry; format: cell-based, human; conditions: 1 μM, 24 hours
Experimental: An experiment was run to determine if inhibition of DYRK1B activity would facilitate cells escaping quiescence and result in surge of proliferating cells, utilizing small molecule inhibitor R. Cycling, log-phase cells from colon cancer cell line SW620 were treated with 1 μM of DYRK1B inhibitor R for 24 hours with 1 hour pulse of BrdU before analysis by flow cytometry after propidium iodine staining of DNA. 38% of the cellular population was detected in the S-phase of the cell cycle. Parallel cultures were treated with the small molecule DYRK1B inhibitor R for 24 hours followed by identical FACS analysis (1-hour BrdU pulse followed by specific mAB-FITC and PI staining).

COc1ncc2cc(C(=O)Nc3cc(C(=O)NCc4cccc(Cl)c4)ccc3Cl)c(=O)[nH]c2n1 [inhibitor R] was tested, and the “percentage of Panc-1 cells in G0 quiescent state” value ([1]; Panc-1, 48 h serum deprivation (DMEM+0.2% FBS), then fresh media with 0.25 μM inhibitor, FACS, control 42%) was 27%, the “number of cells in S-phase of cell cycle” value ([1]; Panc-1, 48 h serum deprivation, then fresh media with 0.25 μM inhibitor, FACS, control 6%) was 13% and the “entry of additional Panc-1 cells into quiescence” value ([1]; Panc-1, presence of inhibitor) was “blocked additional Panc-1 cells from entering quiescence”. For the same compound, the “increase of fraction of S-phase cells compared to non-treated control” value [2] was 29% and the “S-phase population of cells” value ([2]; 1 hour BrdU pulse, control 38%) was 49%.

Reference: patent US20150292032A1, “TREATMENT OF CANCER BY TARGETING QUIESCENT CANCER CELLS” (FELICITEX THERAPEUTICS, INC., priority 2012, published 2015)
